From the supplement of paper PMC13380429

What was measured:
Settings in all cases: 72 h
[1] = system: Calu-3; assay: drug sensitivity score (DSS) for viability; higher = more toxic; extreme values may be limits of the assay
[2] = system: HepG2; assay: as above
[3] = system: U2OS; assay: as above
[4] = system: Vero E6; assay: as above
[5] = system: Caco-2; assay: as above
[6] = system: Calu-3; assay: relative viability EC50 (midpoint between 100% and the lowest measured viability); higher = less toxic
[7] = system: HepG2; assay: as above
[8] = system: U2OS; assay: as above
[9] = system: Vero E6; assay: as above
[10] = system: Caco-2; assay: as above
[11] = system: Calu-3; assay: cell viability relative to DMSO; higher = less toxic
[12] = system: HepG2; assay: as above
[13] = system: U2OS; assay: as above
[14] = system: Vero E6; assay: as above
[15] = system: Caco-2; assay: as above

| Structure (SMILES) | drug sensitivity score [1] | drug sensitivity score [2] | drug sensitivity score [3] | drug sensitivity score [4] | drug sensitivity score [5] | relative viability EC50 [6] | relative viability EC50 [7] | relative viability EC50 [8] | relative viability EC50 [9] | relative viability EC50 [10] | cell viability ([11]; 1 nM) | cell viability ([11]; 10 nM) | cell viability ([11]; 100 nM) | cell viability ([11]; 1000 nM) | cell viability ([11]; 10000 nM) | cell viability ([12]; 1 nM) | cell viability ([12]; 10 nM) | cell viability ([12]; 100 nM) | cell viability ([12]; 1000 nM) | cell viability ([12]; 10000 nM) | cell viability ([13]; 1 nM) | cell viability ([13]; 10 nM) | cell viability ([13]; 100 nM) | cell viability ([13]; 1000 nM) | cell viability ([13]; 10000 nM) | cell viability ([14]; 1 nM) | cell viability ([14]; 10 nM) | cell viability ([14]; 100 nM) | cell viability ([14]; 1000 nM) | cell viability ([14]; 10000 nM) | cell viability ([15]; 1 nM) | cell viability ([15]; 10 nM) | cell viability ([15]; 100 nM) | cell viability ([15]; 1000 nM) | cell viability ([15]; 10000 nM) |
| --- | --- | --- | --- | --- | --- | --- | --- | --- | --- | --- | --- | --- | --- | --- | --- | --- | --- | --- | --- | --- | --- | --- | --- | --- | --- | --- | --- | --- | --- | --- | --- | --- | --- | --- | --- |
| O=C(NO)c1cnc(N2CCN(S(=O)(=O)c3ccc4ccccc4c3)CC2)nc1 | 7.7 | 8.9 | 9.4 | 8.8 | 11.2 | 1.34 µM | 1.29 µM | 1.4 µM | 1.71 µM | 0.894 µM | 107% | 103% | 98.9% | 75.5% | 24.1% | 107% | 96.8% | 91.5% | 65.6% | 11.7% | 97.9% | 98.4% | 94.5% | 69.3% | 4.2% | 102% | 97.5% | 100% | 79.2% | -0.1% | 104% | 128% | 84.7% | 51.8% | 4.3% |
| N#CN1CCCC1 [pyrrolidine-1-carbonitrile] | 0 | 0 | 0 | 0 | 0 | > 10 µM | > 10 µM | > 10 µM | > 10 µM | > 10 µM | 97.6% | 104% | 108% | 107% | 97.9% | 90.6% | 91.1% | 94.4% | 95.2% | 101% | 90.3% | 98% | 97.9% | 104% | 107% | 99.6% | 99.2% | 98.2% | 95.3% | 105% | 103% | 94.7% | 95.4% | 95.9% | 110% |
| Cc1cccc(-c2n[nH]cc2-c2ccc3ncccc3n2)n1 [repsox] | 0.7 | 0 | 0 | 1 | 0 | > 10 µM | > 10 µM | > 10 µM | > 10 µM | > 10 µM | 95.1% | 94.4% | 98.6% | 101% | 78.4% | 100% | 104% | 98.8% | 95.9% | 91% | 96% | 101% | 92.4% | 93.4% | 94.8% | 102% | 97.8% | 103% | 89.5% | 84.8% | 94% | 98.2% | 95% | 105% | 95% |
| N=C1CCCN1Cc1[nH]c(=O)[nH]c(=O)c1Cl [tipiracil] | 0 | 0 | 0 | 0 | 0 | > 10 µM | > 10 µM | > 10 µM | > 10 µM | > 10 µM | 94.2% | 102% | 89.4% | 97.4% | 101% | 100% | 89.6% | 96.5% | 101% | 98.7% | 97.4% | 99% | 93.8% | 97.5% | 100% | 97.6% | 95.9% | 94.9% | 92.6% | 104% | 96.7% | 93.4% | 93.2% | 98.1% | 98.6% |
| CC1CCN(C(c2ccc(F)cc2)c2ccc(C(C)C(=O)O)cc2-c2ccc(C(F)(F)F)cc2)CC1 (stereo not given) [TC-E-5006] | 0 | 0.4 | 0 | 0 | 0.3 | > 10 µM | > 10 µM | > 10 µM | > 10 µM | > 10 µM | 104% | 92.3% | 94.9% | 96.2% | 103% | 97.5% | 103% | 99% | 101% | 81.6% | 102% | 97.9% | 101% | 96.5% | 93.2% | 97.4% | 104% | 95.4% | 99.2% | 100% | 105% | 99.5% | 96.2% | 89% | 90.1% |
| c1cc2c(c(N3CCNCC3)c1)OCCO2 [eltoprazine] | 0 | 0 | 0 | 0 | 0 | > 10 µM | > 10 µM | > 10 µM | > 10 µM | > 10 µM | 92.4% | 76.5% | 97.7% | 108% | 107% | 97% | 101% | 92.2% | 92.4% | 95.7% | 98.4% | 99.6% | 92.9% | 93.6% | 88.2% | 96.5% | 96.5% | 97.9% | 91.9% | 103% | 105% | 97.1% | 106% | 108% | 101% |
| Nc1ncnc2c1c(COc1cccc(Cl)c1)nn2C1CCOCC1 | 0.6 | 0 | 0 | 0 | 0 | > 10 µM | > 10 µM | > 10 µM | > 10 µM | > 10 µM | 95.4% | 104% | 95.3% | 97.2% | 84.2% | 91.3% | 89.1% | 109% | 91.8% | 99.4% | 92.5% | 98.1% | 94.9% | 96.9% | 96.4% | 96.5% | 96.5% | 97.6% | 89.3% | 112% | 89.2% | 99.2% | 99.7% | 100% | 91.3% |
| N[C@H]1C[C@@H]1c1ccccc1 (racemic) [tranylcypromine] | 0 | 0 | 0 | 0 | 0 | > 10 µM | > 10 µM | > 10 µM | > 10 µM | > 10 µM | 92.5% | 97.7% | 97.6% | 100% | 99.7% | 104% | 103% | 97% | 98.5% | 100% | 96.6% | 102% | 97.7% | 103% | 103% | 100% | 99.8% | 93.3% | 97.1% | 108% | 90.7% | 106% | 93.7% | 104% | 104% |
| COc1ccc2c(c1OC)C(=O)O[C@@H]2[C@H]1c2c(cc3c(c2OC)OCO3)CCN1C [noscapine] | 0 | 0 | 0 | 0 | 0 | > 10 µM | > 10 µM | > 10 µM | > 10 µM | > 10 µM | 97.3% | 103% | 102% | 95.9% | 95.8% | 105% | 100% | 86.2% | 100% | 104% | 103% | 98.7% | 101% | 97.5% | 102% | 98.4% | 102% | 96.9% | 104% | 104% | 115% | 109% | 98% | 110% | 105% |
| CCC[C@H](N[C@@H](C)C(=O)N1[C@H](C(=O)O)C[C@@H]2CCCC[C@@H]21)C(=O)O [perindoprilat] | 0 | 0 | 0 | 0 | 0 | > 10 µM | > 10 µM | > 10 µM | > 10 µM | > 10 µM | 100% | 96.1% | 90.6% | 103% | 93.2% | 104% | 96.3% | 103% | 105% | 96.5% | 95.2% | 98.5% | 94.6% | 105% | 92.2% | 104% | 104% | 100% | 95.3% | 97.8% | 103% | 93.9% | 107% | 96.8% | 138% |
| Cc1cc(C(C)(C)C)c(O)c(C)c1CC1=NCCN1 [oxymetazoline] | 0 | 1.5 | 0 | 0 | 0.9 | > 10 µM | > 10 µM | > 10 µM | > 10 µM | > 10 µM | 92.1% | 92.3% | 94.5% | 101% | 107% | 103% | 87.9% | 104% | 84% | 88% | 100% | 99.5% | 98.9% | 100% | 96.4% | 100% | 106% | 102% | 95.7% | 98.7% | 97.6% | 93.7% | 80.4% | 96.6% | 83.6% |
| COc1ccccc1C(=O)Nc1cccc(NC(=O)c2cccc(C)c2)c1 [ML365] | 0 | 0 | 0 | 0 | 0.3 | > 10 µM | > 10 µM | > 10 µM | > 10 µM | > 10 µM | 99% | 98.4% | 96.2% | 98.4% | 94.3% | 113% | 98.7% | 91.6% | 116% | 85.8% | 107% | 102% | 103% | 98.5% | 99% | 102% | 100% | 101% | 98.2% | 95% | 97.8% | 101% | 97.4% | 92.8% | 86% |
| CS(=O)(=O)c1ccc(C2=C(c3ccccc3)C(=O)OC2)cc1 [rofecoxib] | 0 | 0 | 0 | 0 | 0 | > 10 µM | > 10 µM | > 10 µM | > 10 µM | > 10 µM | 99.1% | 100% | 98% | 101% | 102% | 95.7% | 104% | 95.2% | 103% | 101% | 101% | 98.9% | 100% | 98.8% | 99.5% | 93.6% | 105% | 88.4% | 95.3% | 102% | 96.4% | 93.8% | 100% | 91.1% | 92.7% |
| COc1ccc(-c2ccc(=N)n(CCCC(=O)O)n2)cc1 [gabazine] | 0 | 0 | 0 | 0 | 0 | > 10 µM | > 10 µM | > 10 µM | > 10 µM | > 10 µM | 94.8% | 104% | 95.1% | 98% | 93.5% | 91.5% | 97% | 96.8% | 95.4% | 100% | 102% | 98.5% | 100% | 97.1% | 103% | 99.5% | 100% | 98.9% | 95.9% | 96% | 111% | 106% | 99.9% | 105% | 103% |
